Results on eleven molecules are retold here after patent US11053248B2, “[1,2,4]triazolo[1,5-a]pyrimidine compounds as PDE2 inhibitors” (Janssen Pharmaceutica NV, priority 2016, dated 2021).

pIC50: −log10 of the molar value. “And” between values parts separate entries of the source, which are not always exact repeats. Equal entries are not always repeated. Where two headings read alike, the source gives them in different places.

The target of one data set is T1, hPDE2A (Homo sapiens, UniProt O00408).
T1 construct: made in house; host or cells: Sf9 insect cells (baculovirus)
T1 sequence (O00408 whole entry): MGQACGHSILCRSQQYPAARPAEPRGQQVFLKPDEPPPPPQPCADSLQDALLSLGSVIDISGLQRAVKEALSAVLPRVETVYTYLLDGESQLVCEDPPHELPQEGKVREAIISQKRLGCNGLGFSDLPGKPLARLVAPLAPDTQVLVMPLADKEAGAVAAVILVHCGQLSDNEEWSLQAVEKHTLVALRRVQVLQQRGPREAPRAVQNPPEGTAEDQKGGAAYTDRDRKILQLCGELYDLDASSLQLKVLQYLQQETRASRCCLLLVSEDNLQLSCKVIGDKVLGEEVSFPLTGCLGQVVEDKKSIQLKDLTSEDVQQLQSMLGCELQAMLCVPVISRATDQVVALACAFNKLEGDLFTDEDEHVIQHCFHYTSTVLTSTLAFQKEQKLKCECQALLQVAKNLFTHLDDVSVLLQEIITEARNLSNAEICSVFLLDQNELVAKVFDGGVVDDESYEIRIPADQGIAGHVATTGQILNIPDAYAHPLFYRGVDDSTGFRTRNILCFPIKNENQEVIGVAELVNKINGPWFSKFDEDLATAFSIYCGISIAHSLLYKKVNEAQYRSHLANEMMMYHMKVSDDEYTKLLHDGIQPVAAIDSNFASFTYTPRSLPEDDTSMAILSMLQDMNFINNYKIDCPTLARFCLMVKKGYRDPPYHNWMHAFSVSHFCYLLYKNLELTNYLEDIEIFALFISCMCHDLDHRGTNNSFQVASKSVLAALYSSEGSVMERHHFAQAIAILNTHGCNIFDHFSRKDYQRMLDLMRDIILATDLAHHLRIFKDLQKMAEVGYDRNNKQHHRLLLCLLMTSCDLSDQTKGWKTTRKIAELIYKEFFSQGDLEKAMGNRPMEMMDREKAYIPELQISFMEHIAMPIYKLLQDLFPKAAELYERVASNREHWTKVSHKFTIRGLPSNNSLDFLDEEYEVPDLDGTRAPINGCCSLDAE
The data set is described as follows: In vitro assay PDE2A (SPA, 3H-cGMP). It counts as biochemical. The settings on record: for Emax: read-out: hPDE2A Emax; for IC50: 10 μM cGMP substrate, read-out: hPDE2A pIC50 (converted). On the procedure: Human recombinant PDE2A (hPDE2A) was expressed in Sf9 cells using a recombinant rPDE10A baculovirus construct. Cells were harvested after 48 h of infection and the hPDE2A protein was purified by metal chelate chromatography on Ni-sepharose 6FF. Tested compounds were dissolved and diluted in 100% DMSO to a concentration 100 fold of the final concentration in the assay. Compound dilutions (0.4 μl) were added in 384 well plates to 20 μl of incubation buffer (50 mM Tris pH 7.8, 8.3 mM MgCl2, 1.7 mM EGTA). 10 μl of hPDE2A enzyme in incubation buffer was added and the reaction was started by addition of 10 μl substrate to a final concentration of 10 μM cGMP and 0.01 μCi ^3H-cGMP. The reaction was incubated for 45 minutes at room temperature. […] After sedimentation of the beads during 30 minutes the radioactivity was measured in a Perkin Elmer Topcount scintillation counter and results were expressed as cpm. For blanc values the enzyme was omitted from the reaction and replaced by incubation buffer. Control values were obtained by addition of a final concentration of 1% DMSO instead of compound.

For a further data set, the system named is hPDE3B. The data set is described as follows: In vitro assay PDE3 (SPA, 3H-cAMP). It is filed as biochemical, human. Set-up: hPDE3B Emax: unit not given here. As to conditions: for hPDE3B pIC50: 0.4 μM cAMP substrate.
The target in a further data set is hPDE10A2 (Homo sapiens, UniProt Q9Y233). The data set can be described thus: biochemical. The settings on record: for IC50: 60 nM cAMP substrate, read-out: hPDE10A2 pIC50 (converted); for Emax: read-out: hPDE10A2 Emax. The method, then:
Rat recombinant PDE10A (rPDE10A2) was expressed in Sf9 cells using a recombinant rPDE10A baculovirus construct. Cells were harvested after 48 h of infection and the rPDE10A protein was purified by metal chelate chromatography on Ni-sepharose 6FF. Tested compounds were dissolved and diluted in 100% DMSO to a concentration 100 fold of the final concentration in the assay. Human recombinant PDE10A […] was expressed in Sf9 cells using a recombinant hPDE10A baculovirus that was made and amplified in house. Cells were harvested after 72 h of infection and the hPDE10A protein was purified by metal chelate chromatography on Ni-sepharose. Compound dilutions (0.4 μl) were added in 384 well plates to 20 μl of incubation buffer (50 mM Tris pH 7.8, 8.3 mM MgCl2, 1.7 mM EGTA). […] of rPDE10A or hPDE10A enzyme in incubation buffer was added and the reaction was started by addition of 10 μl substrate to a final concentration of 60 nM cAMP and 0.008 μCi ^3H-cAMP. The reaction was incubated for 60 minutes at room temperature. […] After sedimentation of the beads during 30 minutes the radioactivity was measured in a Perkin Elmer Topcount scintillation counter and results were expressed as cpm. For blanc values the enzyme was omitted from the reaction and replaced by incubation buffer. Control values were obtained by addition of a final concentration of 1% DMSO instead of compound.

The target in the next data set is T2, PDE2A (Rattus norvegicus, UniProt Q01062).
T2 construct: from tissue; host or cells: rat brain striatal sections (ex vivo)
T2 sequence (Q01062 1-928): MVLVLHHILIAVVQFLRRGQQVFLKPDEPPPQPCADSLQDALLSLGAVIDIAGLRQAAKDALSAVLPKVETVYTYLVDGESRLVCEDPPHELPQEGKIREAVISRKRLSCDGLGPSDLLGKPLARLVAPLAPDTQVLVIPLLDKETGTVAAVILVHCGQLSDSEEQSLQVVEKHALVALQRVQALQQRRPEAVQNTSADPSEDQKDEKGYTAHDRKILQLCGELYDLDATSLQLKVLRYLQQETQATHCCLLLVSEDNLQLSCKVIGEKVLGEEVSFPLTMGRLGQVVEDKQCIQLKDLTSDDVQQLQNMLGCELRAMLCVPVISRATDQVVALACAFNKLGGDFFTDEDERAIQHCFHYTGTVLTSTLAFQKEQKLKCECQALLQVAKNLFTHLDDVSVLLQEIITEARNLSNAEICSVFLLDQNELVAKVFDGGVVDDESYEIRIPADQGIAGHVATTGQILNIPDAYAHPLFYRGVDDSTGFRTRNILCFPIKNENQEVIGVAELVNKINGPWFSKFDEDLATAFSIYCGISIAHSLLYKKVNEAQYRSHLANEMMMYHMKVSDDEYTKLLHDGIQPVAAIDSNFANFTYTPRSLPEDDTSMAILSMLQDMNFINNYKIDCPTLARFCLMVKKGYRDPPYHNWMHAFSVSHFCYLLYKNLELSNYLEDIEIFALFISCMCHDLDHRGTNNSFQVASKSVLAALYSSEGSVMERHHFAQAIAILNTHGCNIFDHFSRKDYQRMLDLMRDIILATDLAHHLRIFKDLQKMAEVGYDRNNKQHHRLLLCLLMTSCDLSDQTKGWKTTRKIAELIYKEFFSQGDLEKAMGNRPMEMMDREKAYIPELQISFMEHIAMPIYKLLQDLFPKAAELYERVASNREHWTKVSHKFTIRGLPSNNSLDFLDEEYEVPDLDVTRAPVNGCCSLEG
The data set is described as follows: PDE2 occupancy by ex-vivo autoradiography with [3H]B-17a. The settings on record: for receptor occupancy at 10 mg/kg / ED50: rat; for ED50: read-out: PDE occupancy ED50, route PO (oral), male Wistar rats, dose producing 50% occupancy. It counts as in vivo. On the procedure: PDE2 Occupancy by Test Compounds Methods
Brains were immediately removed from the skull and rapidly frozen in dry-ice cooled 2-methylbutane (−40° C.).
After thawing, sections were dried under a cold stream of air and incubated for one minute with 30 nM [^3H]B-17a in Tris-HCl (50 mM, pH7.4) containing 0.3% BSA. Brain sections from drug-treated and vehicle-treated animals were incubated in parallel. […] After incubation, the excess of [^3H]B-17a was washed off in ice-cold buffer 2 times 10 minutes, followed by a quick dip in distilled water. The sections were then dried under a stream of cold air.
Brain sections were loaded in a β-imager (Biospace, Paris) for 4 h and radioactivity emerging from delineated brain area was quantified using the Beta vision program (Biospace, Paris). Specific binding was determined as the difference between total binding in the striatum and non-specific binding in the cerebellum. Percentage receptor occupancy of the drug administered to the animal corresponded to 100% minus the percentage receptor labeled in the treated animal. For the determination of ED50-values, the percentage of receptor occupancy was plotted against dose and the sigmoidal log dose-effect curve of best fit was calculated by non-linear regression analysis, using the GraphPad Prism program.

The mark [1] stands for this setting: route PO (oral), 10 mg/kg, male Wistar rats, striatum, percentage occupancy, read-out: PDE2 occupancy at 10 mg/kg.
Setting [2] is: po, read-out: PDE2 occupancy at 10 mg/kg, route PO (oral), 10 mg/kg, male Wistar rats, striatum, percentage occupancy.

Chain of hPDE10A2 (Q9Y233 267-1055): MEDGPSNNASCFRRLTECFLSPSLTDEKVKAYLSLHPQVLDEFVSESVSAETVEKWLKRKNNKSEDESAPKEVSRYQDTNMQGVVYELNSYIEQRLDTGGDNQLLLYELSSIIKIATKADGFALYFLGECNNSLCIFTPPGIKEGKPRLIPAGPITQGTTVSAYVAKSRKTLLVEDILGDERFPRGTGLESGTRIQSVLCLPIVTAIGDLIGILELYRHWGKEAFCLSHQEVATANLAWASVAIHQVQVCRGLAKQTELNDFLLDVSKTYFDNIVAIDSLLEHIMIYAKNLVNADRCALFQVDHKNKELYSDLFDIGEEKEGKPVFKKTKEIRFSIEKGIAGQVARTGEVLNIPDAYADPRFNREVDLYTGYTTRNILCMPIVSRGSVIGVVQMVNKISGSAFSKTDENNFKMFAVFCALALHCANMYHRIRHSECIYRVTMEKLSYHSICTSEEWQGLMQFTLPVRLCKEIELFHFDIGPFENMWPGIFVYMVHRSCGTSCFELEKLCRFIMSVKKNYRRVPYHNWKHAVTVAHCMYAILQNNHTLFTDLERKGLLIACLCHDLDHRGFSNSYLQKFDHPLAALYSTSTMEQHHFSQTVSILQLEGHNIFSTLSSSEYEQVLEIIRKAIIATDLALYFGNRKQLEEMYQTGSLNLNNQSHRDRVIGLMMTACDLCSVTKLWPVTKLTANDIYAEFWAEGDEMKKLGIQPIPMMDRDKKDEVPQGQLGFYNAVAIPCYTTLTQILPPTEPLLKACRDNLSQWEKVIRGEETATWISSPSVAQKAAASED

In general, pIC50 refers to the IC50 on a negative log10 scale, so that one unit is a factor of ten. A word on the Emax: it is the maximal effect, on the per cent scale that the assay sets. Usually melting point stands for the temperature of the solid-liquid transition. The molecule `Cc1cc(C(F)(F)F)cc(N2CC[C@@H](C)[C@H](c3cc(C(F)F)nc4ncnn34)C2)n1` [Compound 21] gave a melting point of 124.81 °C. Besides, at hPDE2A, the pIC50 is 7.21 and the Emax worked out at 101%. Also, in the data set on hPDE3B, the “hPDE3B Emax” value is 93 and the “hPDE3B pIC50” value came to 5.83. Also, at hPDE10A2, the IC50 was 269 nM and the Emax was found to be 95%. Further, the receptor occupancy at 10 mg/kg at PDE2A (setting [1]) was determined as 9%.

In turn, `C[C@H]1CCN(c2nccc3ccc(Br)cc23)C[C@@H]1c1cc(C(F)F)nc2ncnn12` [Compound 29] showed a melting point of 134.49 °C. On hPDE2A, the pIC50 was 5.53 and the Emax was found to be 8%. For the same molecule, in the data set on hPDE3B, the “hPDE3B Emax” value came out at 99 and the “hPDE3B pIC50” value was 5.85. Moreover, on hPDE10A2, the IC50 is 2510 nM and the Emax came to 84%.

`C[C@H]1CCN(c2nccc3occc23)C[C@@H]1c1cc(C(F)F)nc2ncnn12` [Compound 30] yielded a melting point of 184.03 °C. For the same molecule, on hPDE2A, the pIC50 was 5.07 and the Emax was 9%. Further, in the data set on hPDE3B, the “hPDE3B Emax” value is listed as 53 and the “hPDE3B pIC50” value was 5.02. In addition, at hPDE10A2, the IC50 is above 10000 nM and the Emax was found to be 41%.

On to `C[C@@H]1CCN(c2nccc3occc23)C[C@H]1c1cc(C(F)F)nc2ncnn12` [Compound 13], for which the melting point was determined as 182.59 °C. In addition, on hPDE2A, the negative logarithm of the IC50 (pIC50) was 7.80 and the Emax is 98%. In the data set on hPDE3B, the “hPDE3B Emax” value was 54 and the “hPDE3B pIC50” value came to 5.07. At hPDE10A2, the IC50 was 457 nM and the Emax is 91%. For the same molecule, at PDE2A (route SC (subcutaneous), 10 mg/kg, male Wistar rats, striatum, percentage occupancy), the “PDE2 occupancy at 10 mg/kg” value is 41 and 67.

On to `C[C@@H]1CCN(c2cc(C#N)c3cc(Cl)ccc3n2)C[C@H]1c1cc(C(F)F)nc2ncnn12` [Compound 37], for which the melting point was determined as 235.11 °C. At hPDE2A, the IC50 is 129 nM and the Emax came out at 102%. In the data set with hPDE3B, the “hPDE3B Emax” value was 70 and the “hPDE3B pIC50” value turned out to be 5.17. Besides, at hPDE10A2, the IC50 is 363 nM and the Emax was 96%.

Molecule `C[C@@H]1CCN(c2nccc3cccc(F)c23)C[C@H]1c1cc(C(F)F)nc2ncnn12` [Compound 20] registered a melting point of 179.73 °C. In addition, on hPDE2A, the negative logarithm of the IC50 (pIC50) is 7.43 and the Emax was determined as 100%. Besides, in the data set with hPDE3B, the “hPDE3B Emax” value turned out to be 81 and the “hPDE3B pIC50” value was 5.41. In addition, at hPDE10A2, the IC50 is 269 nM and the Emax worked out at 97%. Besides, the receptor occupancy at 10 mg/kg on PDE2A (setting [2]) was determined as 18%.

For the molecule `Cc1ccc(C#N)c(N2CC[C@@H](C)[C@H](c3cc(C(F)F)nc4ncnn34)C2)n1` [Compound 17], on hPDE2A, the pIC50 was 7.71 and the Emax came to 100%. Moreover, in the data set on hPDE3B, the “hPDE3B Emax” value is 66 and the “hPDE3B pIC50” value is listed as 5.15. On hPDE10A2, the IC50 is 102 nM and the Emax is 97%. At PDE2A (setting [1]), the receptor occupancy at 10 mg/kg was -18%.

Turning to `C[C@@H]1CCN(c2ccc(C#N)cn2)C[C@H]1c1cc(C(F)F)nc2ncnn12` [Compound 35], at hPDE2A, the pIC50 was 6.79 and the Emax amounted to 99%. For the same molecule, in the data set with hPDE3B, the “hPDE3B Emax” value was found to be 31 and the “hPDE3B pIC50” value is on record as below 5. In addition, at hPDE10A2, the IC50 was 1380 nM and the Emax was 85%. Moreover, the receptor occupancy at 10 mg/kg on PDE2A (po, read-out: PDE2 occupancy at 10 mg/kg) amounted to 0%.

For orientation: ED50 means the dose that gives a 50% effect, or the effect in half of the subjects. In turn, `C[C@@H]1CCN(c2nccc3ccc(Cl)cc23)C[C@H]1c1cc(C(F)F)nc2ncnn12` [Compound 4] yielded a melting point of 135.42 °C. For the same molecule, at hPDE2A, the IC50 was 3.39 nM and the Emax came out at 100%. Also, in the data set on hPDE3B, the “hPDE3B Emax” value was found to be 82 and the “hPDE3B pIC50” value was 5.39. Besides, at hPDE10A2, the IC50 was 347 nM and the Emax was found to be 101%. Also, the receptor occupancy at 10 mg/kg at PDE2A (setting [2]) came out at 93%. Further, on PDE2A (po), the ED50 was determined as 8.1 mg/kg.

On to `C[C@@H]1CCN(c2nccc3ccccc23)C[C@H]1c1cc(C(F)F)nc2ncnn12` [Compound 7], for which, on hPDE2A, the pIC50 was 7.97 and the maximal response (Emax) amounted to 101%. In addition, in the data set with hPDE3B, the “hPDE3B Emax” value is on record as 69 and the “hPDE3B pIC50” value turned out to be 5.22. At hPDE10A2, the IC50 is 617 nM and the Emax was found to be 98%. On PDE2A (po), the 50% effective dose (ED50) stood at 29 mg/kg. On PDE2A (sc, read-out: PDE2 occupancy at 10 mg/kg, route SC (subcutaneous), 10 mg/kg, male Wistar rats, striatum, percentage occupancy), the receptor occupancy at 10 mg/kg was determined as 81%.

In turn, `C[C@@H]1CCN(c2nccc3cccnc23)C[C@H]1c1cc(C(F)F)nc2ncnn12` [Compound 23] displayed a melting point of 111.34 °C. Besides, on hPDE2A, the pIC50 is 7.13 and the maximal effect (Emax) was determined as 95%. In the data set with hPDE3B, the “hPDE3B Emax” value was found to be 54 and the “hPDE3B pIC50” value is below 5. Besides, on hPDE10A2, the IC50 was 661 nM and the Emax is 93%. In addition, the receptor occupancy at 10 mg/kg at PDE2A (route SC (subcutaneous), 10 mg/kg, male Wistar rats, striatum, percentage occupancy, read-out: PDE2 occupancy at 10 mg/kg) came out at 5%.
